{"source": "patent US11466044B2", "about": "(WAYNE STATE UNIVERSITY, priority 2017, dated 2022)", "key": {"[1]": {"tested_on": "E coli carrying specific resistance determinants", "experiment": "MIC by broth microdilution, E coli carrying specific resistance determinants", "format": "cell-based"}, "[2]": {"tested_on": "Acinetobacter baumannii pittii AG225", "experiment": "MIC by broth microdilution, Acinetobacter baumannii", "format": "cell-based", "conditions": "strain AG225 Acinetobacter baumannii pittii"}, "[3]": {"tested_on": "Enterobacter cloacae AG290", "experiment": "MIC by broth microdilution, Enterobacter cloacae", "format": "cell-based", "conditions": "strain AG290 Enterobacter cloacae"}, "P aeruginosa": {"tested_on": "P aeruginosa", "experiment": "MIC by broth microdilution, P aeruginosa isolates", "format": "cell-based, Pseudomonas aeruginosa"}, "M. smegmatis SZ380": {"tested_on": "M. smegmatis SZ380", "experiment": "MIC by broth microdilution, M. smegmatis"}}, "data": [{"compound": "NC[C@@H]1O[C@H](O[C@H]2[C@@H](O)[C@H](O[C@@H]3[C@@H](O)[C@H](N)C[C@H](N)[C@H]3O[C@H]3O[C@H](CN)[C@@H](O)[C@H](O)[C@H]3N)O[C@@H]2CO)[C@H](N)[C@@H](O)[C@@H]1O", "note": "[neomycin, Neomycin B, reference compound]", "values": [{"measurement": "MIC E. coli AAC(2′) pH434", "setting": "[1]; AAC(2′) pH434, Table 4 (Example 3)", "result": ">64", "unit": "μg/mL"}, {"measurement": "MIC AAC(6′)", "setting": "[1]; AAC(6′), Table 3 (Example 2)", "result": 4, "unit": "mg/L"}, {"measurement": "MIC50 E coli AG07 AAC(3)", "setting": "[1]; AG07 AAC(3), Table 2A (Example 2)", "result": 4, "unit": "mg/L"}, {"measurement": "MIC50 E coli AG09 AAC(6′)", "setting": "[1]; AG09 AAC(6′), Table 2A (Example 2)", "result": 8, "unit": "mg/L"}, {"measurement": "MIC50 E coli AG036 ANT(4′,4″)", "setting": "[1]; Table 2A (Example 2)", "result": 32, "unit": "mg/L"}, {"measurement": "MIC50 E coli AG036 ANT(4′,4″)", "setting": "[1]; Table 2B (Example 2)", "result": "4 to 8", "unit": "mg/L"}, {"measurement": "MIC50 E coli AG037 APH(3′)-III", "setting": "[1]; AG037 APH(3′)-III, Table 2B (Example 2)", "result": ">64", "unit": "mg/L"}, {"measurement": "MIC50 E coli AG037 APH(3′,5″)", "setting": "[1]; AG037 APH(3′,5″), Table 2A (Example 2)", "result": ">256", "unit": "mg/L"}, {"measurement": "MIC50 E coli AG103 armA", "setting": "[1]; AG103 ArmA, Table 2A (Example 2)", "result": 0.5, "unit": "mg/L"}, {"measurement": "MIC50 E coli AG103 armA", "setting": "[1]; AG103 armA, Table 2B (Example 2)", "result": "0.25 to 0.5", "unit": "mg/L"}, {"measurement": "MIC50 E coli AG105 AAC(2′)", "setting": "[1]; AG105 AAC(2′), Table 2A (Example 2)", "result": 2, "unit": "mg/L"}, {"measurement": "MIC E. coli AG106 AAC(2′)-Ia", "setting": "[1]; AG106 AAC(2′)-Ia, Table 5 (Example 3)", "result": 8, "unit": "mg/L"}, {"measurement": "MIC E coli AG106 AAC(2′)", "setting": "[1]; AG106 AAC(2′), Table 2 (Example 3)", "result": 8, "unit": "mg/L"}, {"measurement": "MIC ANT(4′)", "setting": "[1]; ANT(4′), Table 3 (Example 2)", "result": "4 to 8", "unit": "mg/L"}, {"measurement": "MIC APH(3)-VI", "setting": "[1]; APH(3)-VI, Table 3 (Example 1)", "result": "32 to 64", "unit": "mg/L"}, {"measurement": "MIC APH(3′)-I", "setting": "[1]; APH(3′)-I, Table 3 (Example 1)", "result": ">64", "unit": "mg/L"}, {"measurement": "MIC APH(3′)-II", "setting": "[1]; Table 3 (Example 1)", "result": 64, "unit": "mg/L"}, {"measurement": "MIC APH(3′)-II", "setting": "[1]; Table 3 (Example 2)", "result": 64, "unit": "mg/L"}, {"measurement": "MIC APH(3′)-III", "setting": "[1]; APH(3′)-III, Table 3 (Example 1)", "result": ">64", "unit": "mg/L"}, {"measurement": "MIC APH(3′)-VI", "setting": "[1]; APH(3′)-VI, Table 3 (Example 2)", "result": "32 to 64", "unit": "mg/L"}, {"measurement": "MIC AG036 ANT(4′,4′′)", "setting": "[1]; E. coli strain AG036, ANT(4′,4′′)", "result": "4 to 8", "unit": "mg/L"}, {"measurement": "MIC AG037 APH(3′)-III", "setting": "[1]; E. coli strain AG037, APH(3′)-III", "result": ">64", "unit": "mg/L"}, {"measurement": "MIC AG103 armA", "setting": "[1]; E. coli strain AG103, armA", "result": "0.25 to 0.5", "unit": "mg/L"}, {"measurement": "MIC pH414 AAC(6′)-I", "setting": "[1]; E. coli strain pH414, AAC(6′)-I", "result": 2, "unit": "μg/ml"}, {"measurement": "MIC pH415 AAC(6′)-II", "setting": "[1]; E. coli strain pH415, AAC(6′)-II", "result": 4, "unit": "μg/ml"}, {"measurement": "MIC pH421 APH(3)-I", "setting": "[1]; E. coli strain pH421, APH(3)-I", "result": ">128", "unit": "μg/ml"}, {"measurement": "MIC pH422 APH(3′)-II", "setting": "[1]; E. coli strain pH422, APH(3′)-II", "result": 64, "unit": "μg/ml"}, {"measurement": "MIC pH423 APH(3′)-VI", "setting": "[1]; E. coli strain pH423, APH(3′)-VI", "result": "32-64 μg/ml"}, {"measurement": "MIC pH432 ANT(4′)", "setting": "[1]; E. coli strain pH432, ANT(4′)", "result": 1, "unit": "μg/ml"}, {"measurement": "MIC AG003 E. coli AAC(3)-II", "setting": "[1]; clinical isolate AG003, AAC(3)-II", "result": 1, "unit": "mg/L"}, {"measurement": "MIC AG163 E. coli APH(3′)-I", "setting": "[1]; clinical isolate AG163 APH(3′)-I, Table 2 (Example 4)", "result": ">64", "unit": "mg/L"}, {"measurement": "MIC AG166 E. coli APH(3′)-II", "setting": "[1]; clinical isolate AG166 APH(3′)-II, Table 2 (Example 4)", "result": 64, "unit": "mg/L"}, {"measurement": "MIC AG037 E. coli APH(3′)-III", "setting": "[1]; engineered strain AG037 APH(3′)-III, Table 2 (Example 4)", "result": ">64", "unit": "mg/L"}, {"measurement": "MIC pH421 E. coli APH(3′)-I", "setting": "[1]; engineered strain pH421 APH(3′)-I, Table 2 (Example 4)", "result": ">128", "unit": "μg/ml"}, {"measurement": "MIC pH422 E. coli APH(3′)-II", "setting": "[1]; engineered strain pH422 APH(3′)-II, Table 2 (Example 4)", "result": 64, "unit": "μg/ml"}, {"measurement": "MIC pH423 E. coli APH(3′)-VI", "setting": "[1]; engineered strain pH423 APH(3′)-VI, Table 2 (Example 4)", "result": "32-64 μg/ml"}, {"measurement": "MIC E. coli pGB2armA armA", "setting": "[1]; pGB2armA armA, Table 5 (Example 3)", "result": "0.25-0.5 μg/ml"}, {"measurement": "MIC50 E coli pH414 AAC(6′)-I", "setting": "[1]; pH414 AAC(6′)-I, Table 2B (Example 2)", "result": 2, "unit": "μg/ml"}, {"measurement": "MIC50 E coli pH415 AAC(6′)-II", "setting": "[1]; pH415 AAC(6′)-II, Table 2B (Example 2)", "result": 4, "unit": "μg/ml"}, {"measurement": "MIC50 E coli pH421 APH(3′)-I", "setting": "[1]; pH421 APH(3′)-I, Table 2B (Example 2)", "result": ">128", "unit": "μg/ml"}, {"measurement": "MIC50 E coli pH422 APH(3′)-II", "setting": "[1]; pH422 APH(3′)-II, Table 2B (Example 2)", "result": 64, "unit": "μg/ml"}, {"measurement": "MIC50 E coli pH423 APH(3)-VI", "setting": "[1]; pH423 APH(3)-VI, Table 2B (Example 2)", "result": "32-64 μg/ml"}, {"measurement": "MIC50 E coli pH432 ANT(4′)", "setting": "[1]; pH432 ANT(4′), Table 2B (Example 2)", "result": 1, "unit": "μg/ml"}, {"measurement": "MIC E. coli pH434 AAC(2′)-Ib", "setting": "[1]; pH434 AAC(2′)-Ib, Table 5 (Example 3)", "result": ">64", "unit": "μg/ml"}, {"measurement": "MIC AG225 A. baumannii", "setting": "[2]", "result": "1 to 2", "unit": "mg/L"}, {"measurement": "MIC AG290 E. cloacae", "setting": "[3]", "result": 1, "unit": "mg/L"}, {"measurement": "MIC AG031 P. aer. APH(3′)-II", "setting": "P aeruginosa; clinical isolate AG031, APH(3′)-II", "result": 8, "unit": "mg/L"}, {"measurement": "MIC AG032 P. aer. APH(3′)-II", "setting": "P aeruginosa; clinical isolate AG032, APH(3′)-II", "result": 8, "unit": "mg/L"}, {"measurement": "MIC50 P aeruginosa AG31", "setting": "P aeruginosa; strain AG31, Table 1 (Example 2)", "result": 32, "unit": "mg/L"}, {"measurement": "MIC50 P aeruginosa AG32", "setting": "P aeruginosa; strain AG32, Table 1 (Example 2)", "result": "32 to 64", "unit": "mg/L"}, {"measurement": "MIC50 P aeruginosa AG33", "setting": "P aeruginosa; strain AG33, Table 1 (Example 2)", "result": ">128", "unit": "mg/L"}, {"measurement": "MIC50 P aeruginosa AG86", "setting": "P aeruginosa; strain AG86, Table 1 (Example 2)", "result": ">128", "unit": "mg/L"}, {"measurement": "MIC AG220 P. aerugin", "setting": "P aeruginosa; strain AG220 Pseudomonas aeruginosa ATCC27853", "result": 32, "unit": "mg/L"}, {"measurement": "MIC M. smegmatis SZ380 WT", "setting": "M. smegmatis SZ380; SZ380 WT, Table 5 (Example 3)", "result": 0.5, "unit": "mg/L"}, {"measurement": "MIC SZ380 M. smegmatis", "setting": "M. smegmatis SZ380; strain SZ380 Mycobacterium smegmatis", "result": 0.5, "unit": "mg/L"}]}]}
